Experimental data reported in PubChem BioAssay AID588616 (The Scripps Research Institute Molecular Screening Center, 2011).

Tests used:
[1] = target: Mitogen-activated protein kinase 14 (Homo sapiens) (UniProt Q16539); experiment: phospho-p38 protein level change, either direction, late-stage follow-up, counter-screen for KLF5 inhibitor project, DLD1 cells, chemiluminescent western blot, powder samples (AID 588616); conditions: DLD-1 cells, phospho-p38 western blot, 24 h; at 10 µM; stronger effect = higher value
[2] = system: DLD-1 cells, phospho-p38 western blot, 24 h; experiment: as above; conditions: measured here: phospho-p38 band fold change vs DMSO; at 10 µM; stronger effect = lower value

Sequence of Mitogen-activated protein kinase 14 (Homo sapiens) (Q16539 whole entry, looked up): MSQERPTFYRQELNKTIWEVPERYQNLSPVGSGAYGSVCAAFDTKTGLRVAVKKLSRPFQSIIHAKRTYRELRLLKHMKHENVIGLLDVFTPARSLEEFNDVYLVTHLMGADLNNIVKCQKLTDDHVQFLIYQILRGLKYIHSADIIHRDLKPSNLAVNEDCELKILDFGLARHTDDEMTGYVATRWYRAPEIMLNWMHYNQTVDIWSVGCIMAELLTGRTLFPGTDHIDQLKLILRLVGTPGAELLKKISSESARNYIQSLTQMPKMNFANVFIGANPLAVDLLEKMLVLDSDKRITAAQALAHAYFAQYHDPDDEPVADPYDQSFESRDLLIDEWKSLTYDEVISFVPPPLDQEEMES

Structure (SMILES) | inhibition [1] | fold change [2]
CN(C(=O)CNC(=O)/C=C/c1cccc(Cl)c1)C1CCS(=O)(=O)C1 (stereo unspecified) | -114% | 2.14
CN(C(=O)COC(=O)/C=C/c1cccc([N+](=O)[O-])c1)C1CCS(=O)(=O)C1 (stereo unspecified) | -197% | 2.97
CN(C(=O)CNC(=O)/C=C/c1cccc(Cl)c1)C1CCS(=O)(=O)CC1 | -144% | 2.44
